Measurements reported in patent US6603046B1, “Bis-aromatic a,β-unsaturated ketones” (Lica Pharmaceuticals A/S, priority 1992, dated 2003).
Marks after values point to notes of the source that are not given here.

How the values were obtained:
[1] = system: chloroquine-sensitive P. falciparum 3D7A strain; test: In vitro growth of P. falciparum 3D7A, 3H-hypoxanthine uptake (Example 15); type: cell-based, Plasmodium falciparum; settings: for Percentage inhibition of 3H-hypoxanthine uptake (mean ± SEM): title: percentage inhibition of 3H-hypoxanthine uptake
[2] = system: P. yoelii strain YM; test: P. yoelii strain YM infection in mice, parasitemia and mortality (Example 16); type: in vivo, BALB/c mice
[3] = system: chloroquine resistant P. falciparum DD2 strain; test: In vitro growth of P. falciparum DD2, 3H-hypoxanthine uptake (Example 15); type: cell-based, Plasmodium falciparum; settings: Plasmodium falciparum, DD2, read-out: concentration in which parasite growth was retarded by 50%
[4] = system: L. major promastigotes; test: L. major promastigotes from 4-days cultures, 3H-thymidine uptake (Examples 5, 14); type: cell-based, Leishmania major; settings: Leishmania major, Table 14.1, read-out: percentage inhibition of promastigotes (upper figure)
Summary of the method: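 Promastigotes harvested on day 4 of culture were exposed to compound, then pulsed with 100 μC 3H-thymidine for a further 18 h. Cells were collected on filter paper, washed, and incorporated radioactivity counted by scintillation.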

[5] = system: human lymphocytes; test: Lymphocyte Proliferation Assay, 3H-thymidine incorporation (Example 13); settings: Homo sapiens, Lymphocyte, read-out: inhibition of lymphocytes (lower figure)
[6] = system: P. falciparum; test: P. falciparum growth in vitro (Table 14.1, strain not stated); type: cell-based; settings: Plasmodium falciparum, read-out: inhibition of malaria parasites (middle figure) (converted)
Protocol: The P. falciparum experimental setup was as described in Example 15.
Testing of the effect of drugs and serum on the in vitro growth of the parasites. The experiments in which compounds were tested for their ability to inhibit parasite growth were performed by a modification of the method originally described by Jensen et al. (1982). Fifty μl of parasitized erythrocytes (parasitemia approximately 1%) in a concentration of 5×10^8/ml and 50 μl of RPMI medium containing different concentrations of the test compound was added to each well of a 96 well flat-bottomed microtiter plate (Nunc). The cultures were then incubated for 48 hours, 24 hours before termination of the culture adding 20 μl of 3-H-hypoxanthine (40 uCi/ml) (New England Nuclear, Boston, Mass., USA) was added to each well. The cultures were then harvested onto glass fiber filters using a Skatron cell harvester (Skatron, Lierbyen, Norway), and the incorporation of 3-H-hypoxanthine into the DNA of dividing parasites was determined by liquid scintillation spectrometry.

[7] = system: Eimeria tenella; test: Anticoccidial activity in chickens infected with Eimeria tenella (Example 28); type: in vivo
[8] = D + 10, i.p. 0.5 mg/kg/day once daily D0-D + 3
[9] = D + 12, i.p. 0.5 mg/kg/day once daily D0-D + 3
[10] = D + 14, i.p. 0.5 mg/kg/day once daily D0-D + 3
[11] = D + 16, i.p. 0.5 mg/kg/day once daily D0-D + 3
[12] = D + 16, i.p. 2.5 mg/kg/day once daily D0-D + 3
[13] = D + 18, i.p. 0.5 mg/kg/day once daily D0-D + 3
[14] = D + 18, i.p. 2.5 mg/kg/day once daily D0-D + 3
[15] = D + 20, i.p. 0.5 mg/kg/day once daily D0-D + 3
[16] = D + 20, i.p. 2.5 mg/kg/day once daily D0-D + 3
[17] = D + 20, i.p. 5 mg/kg/day once daily D0-D + 3
[18] = amount of feed consumed per kg chicken weight gain, doses as Table 28.1
[19] = in feed: salinomycin 70 ppm, 2,5 m4′ac and 2,4 mc 30 mg/kg/day, licochalcone A 10 mg/kg/day

CCN(CC)CCCC(C)Nc1ccnc2cc(Cl)ccc12 (stereo not shown) [Chloroquine, chloroquine phosphate, reference compound]
IC50 ([1]; Plasmodium falciparum, read-out: concentration in which growth was retarded by 50%): 38 to 75 µg/mL | Percentage inhibition of 3H-hypoxanthine uptake (mean ± SEM) ([1]; 38 ng/ml): 34.0 ± 6.1% | Percentage inhibition of 3H-hypoxanthine uptake (mean ± SEM) ([1]; 75 ng/ml): 80.2 ± 3.7% | Percentage inhibition of 3H-hypoxanthine uptake (mean ± SEM) ([1]; 150 ng/ml): 97.1 ± 1.0% | Percentage inhibition of 3H-hypoxanthine uptake (mean ± SEM) ([1]; 300 ng/ml): 98.8 ± 0.3% | % parasitemia (mean ± SEM) ([2]; D + 4, i.p. 0.5 mg/kg/day once daily D0-D + 3): 0.9 ± 0.5% | % parasitemia (mean ± SEM) ([2]; D + 4, i.p. 2.5 mg/kg/day once daily D0-D + 3): 0.2 ± 0.2% | % parasitemia (mean ± SEM) ([2]; D + 4, i.p. 5 mg/kg/day once daily D0-D + 3): 0.02 ± 0.04% | % parasitemia (mean ± SEM) ([2]; D + 6, i.p. 0.5 mg/kg/day once daily D0-D + 3): 24 ± 8.6% | % parasitemia (mean ± SEM) ([2]; D + 6, i.p. 2.5 mg/kg/day once daily D0-D + 3): 2.4 ± 2.2% | % parasitemia (mean ± SEM) ([2]; D + 6, i.p. 5 mg/kg/day once daily D0-D + 3): 0% | % parasitemia (mean ± SEM) ([2]; D + 8, i.p. 0.5 mg/kg/day once daily D0-D + 3): 57.4 ± 4.2% | % parasitemia (mean ± SEM) ([2]; D + 8, i.p. 2.5 mg/kg/day once daily D0-D + 3): 28.3 ± 16.2% | % parasitemia (mean ± SEM) ([2]; D + 8, i.p. 5 mg/kg/day once daily D0-D + 3): 0.1 ± 0.17% | % parasitemia (mean ± SEM) [2, 8]: 66.3 ± 6.6% | mortality (no. of dead mice/total no. of tested mice) [2, 8]: (2/5) | % parasitemia (mean ± SEM) ([2]; D + 10, i.p. 2.5 mg/kg/day once daily D0-D + 3): 33.7 ± 19.8% | % parasitemia (mean ± SEM) ([2]; D + 10, i.p. 5 mg/kg/day once daily D0-D + 3): 2.8 ± 2.7% | % parasitemia (mean ± SEM) [2, 9]: 49.7 ± 17.6% | mortality (no. of dead mice/total no. of tested mice) [2, 9]: (2/5) | % parasitemia (mean ± SEM) ([2]; D + 12, i.p. 2.5 mg/kg/day once daily D0-D + 3): 40.2 ± 21% | % parasitemia (mean ± SEM) ([2]; D + 12, i.p. 5 mg/kg/day once daily D0-D + 3): 13 ± 4.4% | % parasitemia (mean ± SEM) [2, 10]: 35.3 ± 4.7% | mortality (no. of dead mice/total no. of tested mice) [2, 10]: (2/5) | % parasitemia (mean ± SEM) ([2]; D + 14, i.p. 2.5 mg/kg/day once daily D0-D + 3): 37.4 ± 19.8% | % parasitemia (mean ± SEM) ([2]; D + 14, i.p. 5 mg/kg/day once daily D0-D + 3): 22.4 ± 6.1% | % parasitemia (mean ± SEM) [2, 11]: 18.5 ± 19.1% | mortality (no. of dead mice/total no. of tested mice) [2, 11]: (3/5) | % parasitemia (mean ± SEM) [2, 12]: 4.7 ± 4.6% | mortality (no. of dead mice/total no. of tested mice) [2, 12]: (2/5) | % parasitemia (mean ± SEM) ([2]; D + 16, i.p. 5 mg/kg/day once daily D0-D + 3): 62.2 ± 24.5% | % parasitemia (mean ± SEM) [2, 13]: 9% | mortality (no. of dead mice/total no. of tested mice) [2, 13]: 4/5 | % parasitemia (mean ± SEM) [2, 14]: 0% | mortality (no. of dead mice/total no. of tested mice) [2, 14]: 2/5 | % parasitemia (mean ± SEM) ([2]; D + 18, i.p. 5 mg/kg/day once daily D0-D + 3): 75.2 ± 3.3% | % parasitemia (mean ± SEM) [2, 15]: 0% | mortality (no. of dead mice/total no. of tested mice) [2, 15]: 4/5 | % parasitemia (mean ± SEM) [2, 16]: 0% | mortality (no. of dead mice/total no. of tested mice) [2, 16]: 2/5 | % parasitemia (mean ± SEM) [2, 17]: 50 ± 16.4% | mortality (no. of dead mice/total no. of tested mice) [2, 17]: (1/5) | IC50 [3]: 0.075 to 0.15 µg/mL

C=CCOc1ccc(C(=O)/C=C/c2cc(OC)cc(OC)c2)cc1 [drawing 85]
inhibition at 0.5 µg/mL ([4]; 0.5 μg/ml): 10.6 ± 10.7% | inhibition at 1 µg/mL ([4]; 1 μg/ml): 27.6 ± 23.3% | inhibition at 5 µg/mL ([4]; 5 μg/ml): 82.8 ± 10% | inhibition at 10 µg/mL ([4]; 10 μg/ml): 98.3 ± 0.9% | inhibition at 0.5 µg/mL [5]: 0% | inhibition at 1 µg/mL [5]: 0% | inhibition at 5 µg/mL [5]: 4.6% | inhibition at 10 µg/mL [5]: 25.4% | inhibition at 0.5 µg/mL ([6]; 0.5 μg/ml): 13.8% | inhibition at 1 µg/mL ([6]; 1 μg/ml): 15.3% | inhibition at 5 µg/mL ([6]; 5 μg/ml): 74.3% | inhibition at 10 µg/mL ([6]; 10 μg/ml): 98.6%

CC[C@@H](C(=O)[C@@H](C)[C@@H](O)[C@H](C)[C@@H]1O[C@@H]([C@@H](CC)C(=O)O)CC[C@@H]1C)[C@H]1O[C@]2(C=C[C@@H](O)[C@]3(CC[C@@](C)([C@H]4CC[C@](O)(CC)[C@H](C)O4)O3)O2)[C@H](C)C[C@@H]1C [salinomycin, reference compound]
feed consumption after 7 days of treatment [7, 18]: 1.30 | feed consumption after 14 days of treatment [7, 18]: 1.44 | Weight gain in 7 days after initiation of treatment [7, 19]: 425 grams per chicken | Weight gain in 14 days after initiation of treatment [7, 19]: 900^a grams per chicken | Difference in weight gain to group 5 (control infected) after treatment for 14 days ([7]; normal variation ±2%): ^aDifference between groups 1 (standard feed) and 5 (control infected) after treatment for 14 days is 12%. | Mortality ([7]; number of chickens, groups of 35, licochalcone A 20): 0
